From ChEMBL document CHEMBL5634133, “Indirubin derivatives as bifunctional molecules inducing DNA damage and targeting PARP for the treatment of cancer” (Eur J Med Chem, 2023)
Active and inactive are the calls of the source. The rule behind the calls is not given here.

How the values were obtained:
NCM460 = assay: Antiproliferative activity against human NCM460 cells assessed as inhibition of cell viability incubated for 72 hrs by CCK8 assay; assay type: functional, cell-based; settings: NCM460, 72 h
A549 = assay: Antiproliferative activity against human A549 cells assessed as inhibition of cell viability incubated for 72 hrs by CCK8 assay; assay type: functional, cell-based; settings: A549, 72 h
MCF7 = assay: Antiproliferative activity against human MCF7 cells assessed as inhibition of cell viability incubated for 72 hrs by CCK8 assay; assay type: functional, cell-based; settings: MCF7, 72 h
MV4-11 = assay: Antiproliferative activity against human MV4-11 cells assessed as inhibition of cell viability incubated for 72 hrs by CCK8 assay; assay type: functional, cell-based; settings: MV4-11, 72 h
HCT-116 [1] = assay: Antiproliferative activity against human HCT-116 cells assessed as inhibition of cell viability incubated for 72 hrs by CCK8 assay; assay type: functional, cell-based; settings: HCT-116, 72 h
[2] = target: T1, Poly [ADP-ribose] polymerase 1 (Homo sapiens, UniProt P09874); assay: Inhibition of PARP1 (unknown origin) incubated for 10 mins by chemiluminescence assay
T1 sequence (P09874 whole entry): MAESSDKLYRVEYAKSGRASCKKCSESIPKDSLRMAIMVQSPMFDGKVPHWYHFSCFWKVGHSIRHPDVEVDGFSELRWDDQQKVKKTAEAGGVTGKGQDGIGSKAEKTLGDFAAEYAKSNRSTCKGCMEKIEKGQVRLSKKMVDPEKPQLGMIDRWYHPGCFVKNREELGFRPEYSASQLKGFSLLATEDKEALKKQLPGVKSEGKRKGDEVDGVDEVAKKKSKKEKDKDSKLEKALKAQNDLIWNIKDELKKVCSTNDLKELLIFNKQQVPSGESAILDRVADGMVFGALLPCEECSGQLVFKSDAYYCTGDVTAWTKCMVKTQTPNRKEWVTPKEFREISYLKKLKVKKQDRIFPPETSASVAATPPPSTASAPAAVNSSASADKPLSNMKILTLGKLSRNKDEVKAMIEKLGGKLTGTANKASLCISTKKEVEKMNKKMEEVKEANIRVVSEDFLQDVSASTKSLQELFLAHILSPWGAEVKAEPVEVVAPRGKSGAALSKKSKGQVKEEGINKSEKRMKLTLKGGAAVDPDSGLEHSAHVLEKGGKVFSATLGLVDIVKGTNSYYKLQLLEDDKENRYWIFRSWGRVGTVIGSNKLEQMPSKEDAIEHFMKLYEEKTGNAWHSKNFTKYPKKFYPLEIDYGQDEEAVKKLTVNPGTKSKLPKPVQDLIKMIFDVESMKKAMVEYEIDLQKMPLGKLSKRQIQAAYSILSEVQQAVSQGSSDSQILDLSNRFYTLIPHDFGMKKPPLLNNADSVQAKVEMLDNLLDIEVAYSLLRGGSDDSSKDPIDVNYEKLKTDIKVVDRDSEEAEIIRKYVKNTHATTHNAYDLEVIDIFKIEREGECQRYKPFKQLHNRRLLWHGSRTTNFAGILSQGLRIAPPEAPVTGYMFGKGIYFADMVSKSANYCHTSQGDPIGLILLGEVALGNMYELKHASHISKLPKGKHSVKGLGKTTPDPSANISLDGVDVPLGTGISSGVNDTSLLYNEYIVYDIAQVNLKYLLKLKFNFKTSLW

HCT-116 [3] = assay: Antitumor activity against human HCT-116 cells xenografted in BALB/c nude mouse assessed as tumor growth inhibition at 20 mg/kg, ip administered for 14 days relative to control; assay type: functional; settings: Mus musculus, HCT-116, 336 h, time 14 day, read-out: TGI
HCT-116 [4] = assay: Antitumor activity against human HCT-116 cells xenografted in BALB/c nude mouse assessed as tumor growth inhibition at 10 mg/kg, ip administered for 14 days relative to control; assay type: functional; settings: HCT-116, 336 h, time 14 day, read-out: TGI
[5] = Half life in BALB/c mouse at 20 mg/kg, po and measured after 24 hrs by LC-MS/MS analysis; assay type: ADME, organism-based; settings: in vivo
[6] = Cmax in BALB/c mouse at 20 mg/kg, po and measured after 24 hrs by LC-MS/MS analysis; assay type: ADME, organism-based; settings: in vivo
[7] = AUC(0 to t) in BALB/c mouse at 20 mg/kg, po and measured after 24 hrs by LC-MS/MS analysis; assay type: ADME, organism-based; settings: in vivo
[8] = AUC(0 to infinity) in BALB/c mouse at 20 mg/kg, po and measured after 24 hrs by LC-MS/MS analysis; assay type: ADME, organism-based; settings: in vivo
[9] = Clearance in BALB/c mouse at 20 mg/kg, po and measured after 24 hrs by LC-MS/MS analysis; assay type: ADME, organism-based; settings: in vivo
HCT-116 [10] = assay: Antiproliferative activity against human HCT-116 cells assessed as inhibition of colony formation incubated for 48 hrs medium replaced with every 14 days by crystal violet staining based optical microscope; assay type: functional, cell-based; settings: time 14.0 day
HCT-116 [11] = assay: Antiproliferative activity against human HCT-116 cells assessed as decrease in number of EdU-positive cells at 0.25 to 1 uM incubated for 48 hrs in presence of EdU labeling agent by Hoechst staining based confocal microscopy; assay type: functional, cell-based; settings: dose 0.25-1 µM
[12] = target: T1, Poly [ADP-ribose] polymerase 1; assay: Inhibition of PARP1 in human HCT-116 cells assessed as inhibition of PARP-induced PARylation incubated for 48 hrs by Western blotting analysis; assay type: cell-based; settings: dose 0.25-1 µM
HCT-116 [13] = assay: Induction of DNA damage in human HCT-116 cells assessed as increase in gammaH2AX phosphorylation level incubated for 48 hrs by Western blotting analysis; assay type: functional, cell-based; settings: dose 0.25-1 µM
HCT-116 [14] = assay: Induction of DNA damage in human HCT-116 cells assessed as increase in gammaH2AX phosphorylation level incubated for 48 hrs by DAPI staining based immunofluorescence analysis; assay type: functional, cell-based; settings: dose 0.25-1 µM
HCT-116 [15] = assay: Induction of apoptosis in human HCT-116 cells assessed as viable cells at 0.25 uM incubated for 48 hrs by Annexin V-PE/7-AAD staining based flow cytometry analysis (reference value: 92.8 %); assay type: functional; settings: read-out: Activity
HCT-116 [16] = assay: Induction of apoptosis in human HCT-116 cells assessed as early apoptotic cells at 0.25 uM incubated for 48 hrs by Annexin V-PE/7-AAD staining based flow cytometry analysis (reference value: 6.78 %); assay type: functional
HCT-116 [17] = assay: Induction of apoptosis in human HCT-116 cells assessed as late apoptotic cells at 0.25 uM incubated for 48 hrs by Annexin V-PE/7-AAD staining based flow cytometry analysis (reference value: 0.39 %); assay type: functional
HCT-116 [18] = assay: Induction of apoptosis in human HCT-116 cells assessed as necrotic cells at 0.25 uM incubated for 48 hrs by Annexin V-PE/7-AAD staining based flow cytometry analysis (reference value: 0 %); assay type: functional
HCT-116 [19] = assay: Induction of apoptosis in human HCT-116 cells assessed as viable cells at 0.5 uM incubated for 48 hrs by Annexin V-PE/7-AAD staining based flow cytometry analysis (reference value: 92.8 %); assay type: functional; settings: read-out: Activity
HCT-116 [20] = assay: Induction of apoptosis in human HCT-116 cells assessed as early apoptotic cells at 0.5 uM incubated for 48 hrs by Annexin V-PE/7-AAD staining based flow cytometry analysis (reference value: 6.78 %); assay type: functional
HCT-116 [21] = assay: Induction of apoptosis in human HCT-116 cells assessed as late apoptotic cells at 0.5 uM incubated for 48 hrs by Annexin V-PE/7-AAD staining based flow cytometry analysis (reference value: 0.39 %); assay type: functional
HCT-116 [22] = assay: Induction of apoptosis in human HCT-116 cells assessed as necrotic cells at 0.5 uM incubated for 48 hrs by Annexin V-PE/7-AAD staining based flow cytometry analysis (reference value: 0 %); assay type: functional
HCT-116 [23] = assay: Induction of apoptosis in human HCT-116 cells assessed as viable cells at 1 uM incubated for 48 hrs by Annexin V-PE/7-AAD staining based flow cytometry analysis (reference value: 92.8 %); assay type: functional; settings: read-out: Activity
HCT-116 [24] = assay: Induction of apoptosis in human HCT-116 cells assessed as early apoptotic cells at 1 uM incubated for 48 hrs by Annexin V-PE/7-AAD staining based flow cytometry analysis (reference value: 6.78 %); assay type: functional
HCT-116 [25] = assay: Induction of apoptosis in human HCT-116 cells assessed as late apoptotic cells at 1 uM incubated for 48 hrs by Annexin V-PE/7-AAD staining based flow cytometry analysis (reference value: 0.39 %); assay type: functional
HCT-116 [26] = assay: Induction of apoptosis in human HCT-116 cells assessed as necrotic cells at 1 uM incubated for 48 hrs by Annexin V-PE/7-AAD staining based flow cytometry analysis (reference value: 0 %); assay type: functional
HCT-116 [27] = assay: Induction of apoptosis in human HCT-116 cells assessed as increase in Cleaved-PARP protein expression level by Western blotting analysis; assay type: functional, cell-based; settings: dose 0.25-1 µM
HCT-116 [28] = assay: Induction of apoptosis in human HCT-116 cells assessed as increase in Bax protein expression level by Western blotting analysis; assay type: functional, cell-based; settings: dose 0.25-1 µM
HCT-116 [29] = assay: Induction of apoptosis in human HCT-116 cells assessed as increase in Cleaved-Caspase-3 protein expression level by Western blotting analysis; assay type: functional, cell-based; settings: dose 0.25-1 µM
HCT-116 [30] = assay: Induction of apoptosis in human HCT-116 cells assessed as decrease in Bcl-2 protein expression level by Western blotting analysis; assay type: functional, cell-based; settings: dose 0.25-1 µM
HCT-116 [31] = assay: Induction of apoptosis in human HCT-116 cells assessed as decrease in Caspase-3 protein expression level by Western blotting analysis; assay type: functional, cell-based; settings: dose 0.25-1 µM
HCT-116 [32] = assay: Induction of apoptosis in human HCT-116 cells assessed as increase in accumulation of cells at S phase at 0.25 to 1 uM incubated for 48 hrs by propidium iodide staining based flow cytometry analysis (reference value: 24.67%); assay type: functional; settings: dose 0.25-1 µM
HCT-116 [33] = assay: […] in human HCT-116 cells assessed as decrease in accumulation of cells at G2/M phase at 0.25 to 1 uM incubated for 48 hrs by propidium iodide staining based flow cytometry analysis (Rvb =34.99%); assay type: functional; parameters: scale not given: the % may be the effect or the level left; settings: dose 0.25-1 µM
HCT-116 [34] = assay: Antiproliferative activity against human HCT-116 cells transfected with PARP1 siRNA assessed as inhibition of cell viability at 0.5 uM incubated for 72 hrs by CCK8 assay; assay type: functional, cell-based
HCT-116 [35] = assay: Antitumor activity against human HCT-116 cells xenografted in BALB/c nude mouse assessed as reduction in tumor weight at 10 mg/kg, ip administered for 14 days relative to control; assay type: functional, organism-based; settings: time 14.0 day
[36] = Toxicity in BALB/c nude mouse xenografted with human HCT-116 cells assessed as change in body weight at 20 mg/kg, ip administered for 14 days; assay type: organism-based; settings: in vivo, 336 h, time 14 day
HCT-116 [37] = assay: Antitumor activity against human HCT-116 cells xenografted in BALB/c nude mouse assessed as suppression of tumor growth at 10 mg/kg, ip administered for 14 days relative to control; assay type: functional, organism-based; settings: time 14.0 day
[38] = Toxicity in BALB/c nude mouse xenografted with human HCT-116 cells assessed as tissue morphology at 20 mg/kg, ip administered for 14 days by hematoxylin and eosin staining based assay; assay type: organism-based; settings: in vivo, 336 h, time 14 day
[39] = target: T1, Poly [ADP-ribose] polymerase 1; settings: dose 10.0 nM, time 10.0 min

IC50 (A549): 3260 nM
IC50 (MCF7): 1600 nM
IC50 (MV4-11): 520 nM
IC50 (HCT-116 [1]): 310 nM
IC50 [2]: 1.89 nM
half-life [5]: 5.82 h
Cmax [6]: 6040 ng/mL
AUCt [7]: 5900 ng·h/mL
AUC [8]: 6450 ng·h/mL
CL [9]: 51.65 mL/min/kg
inhibition [12]: Dose-Dependent Effect
inhibition [39]: 64.8%
SMILES: O=C1Nc2ccccc2/C1=C1/Nc2ccccc2/C1=N\OCCCC(=O)N1CCN(C(=O)c2ccc(Cc3n[nH]c(=O)c4ccccc34)cc2F)CC1
IC50 (NCM460): > 60000 nM
inhibition in vivo at 20 mg/kg (HCT-116 [3]): 86.6%
inhibition in vivo at 10 mg/kg (HCT-116 [4]): 75.9%
Activity (HCT-116 [10]): Dose-Dependent Effect
Activity (HCT-116 [11]): Active
Activity (HCT-116 [13]): Dose-Dependent Effect
Activity (HCT-116 [14]): Dose-Dependent Effect
viability at 0.25 µM (HCT-116 [15]): 89.3%
Activity (HCT-116 [16]): 8.64%
Activity (HCT-116 [17]): 1.76%
Activity (HCT-116 [18]): 0.12%
viability at 0.5 µM (HCT-116 [19]): 83.7%
Activity (HCT-116 [20]): 14.6%
Activity (HCT-116 [21]): 1.05%
Activity (HCT-116 [22]): 0.11%
viability at 1 µM (HCT-116 [23]): 69.4%
Activity (HCT-116 [24]): 22.7%
Activity (HCT-116 [25]): 7.01%
Activity (HCT-116 [26]): 0.28%
Activity (HCT-116 [27]): Dose-Dependent Effect
Activity (HCT-116 [28]): Dose-Dependent Effect
Activity (HCT-116 [29]): Dose-Dependent Effect
Activity (HCT-116 [30]): Dose-Dependent Effect
Activity (HCT-116 [31]): Dose-Dependent Effect
Activity (HCT-116 [32]): 41.03%
Activity (HCT-116 [33]): 10.5%
Activity (HCT-116 [34]): inactive
Activity (HCT-116 [35]): Active
Activity [36]: Non-Toxic
Activity (HCT-116 [37]): Active
Activity [38]: Non-Toxic
